Patent US7238697B2, “Pyridylpyrimidines for use as pesticides” (Bayer CropScience AG, priority 2001, dated 2007)

Tested on: peach aphids (Myzus persicae)
Test: Myzus test (cabbage leaves dipped)
Type: in vivo
Conditions: 144 h, 500 ppm, after 6 d, solvent 7 parts DMF, emulsifier 2 parts (Table D-2), read-out: Kill rate in % after 6 d
Method: To produce a suitable preparation of active compound, 1 part by weight of active compound is mixed with the stated amounts of solvent and emulsifier, and the concentrate is diluted with emulsifier-containing water to the desired concentration. Cabbage leaves (Brassica oleracea) which are heavily infested by peach aphids (Myzus persicae) are treated by being dipped into the preparation of the active compound of the desired concentration. After the desired period of time, the kill in % is determined. 100% means that all aphids have been killed; 0% means that none of the aphids has been killed.

Row | Compound | pest or weed control at 500 ppm [%]
1 | O=C(CSc1nccc(-c2ccccn2)n1)OCC(F)=C(Cl)Cl [drawing 431] | 100

Same assay, conditions: 144 h, 1000 ppm, after 6 d, solvent 30 parts DMF, emulsifier 1 part (Table D-1), read-out: Kill rate in % after 6 d

Row | Compound | pest or weed control at 1000 ppm [%]
2 | COC(=O)CCCSc1nccc(-c2ccccn2)n1 [drawing 423] | 100

Tested on: not listed separately
Test: log P determination by HPLC (reversed-phase C18), EEC Directive 79/831 Annex V.A8
Type: physicochemical
Conditions: pH 2.3
Method: The stated log P values were determined in accordance with EEC Directive 79/831 Annex V.A8 by HPLC (High Performance Liquid Chromatography) using a reversed-phase column, (C 18). Temperature: 43° C. Mobile phases for the determination in the acidic range: 0.1% aqueous phosphoric acid, acetonitrile; linear gradient from 10% acetonitrile to 90% acetonitrile. Calibration was carried out using unbranched alkan-2-ones (having 3 to 16 carbon atoms) with known logP values (determination of the logP values by the retention times using linear interpolation between two successive alkanones).

Row | Compound | chromatographic logP
3 | NC(=O)OCCOC(=O)CSc1nccc(-c2ccccn2)n1 [Example 177] | 1.41

Same assay, conditions: pH 2.3; HPLC, reversed-phase C 18, 43° C., 0.1% aqueous phosphoric acid/acetonitrile; read-out: log P (pH 2.3)

Row | Compound | chromatographic logP
4 | O=C(CSc1nccc(-c2ccccn2)n1)OCC(F)(F)C(F)(F)C(F)(F)F [Example 119] | 3.37

Same assay, conditions: reversed-phase C18 HPLC column; pH 2.3; HPLC, reversed-phase C 18, 43° C., 0.1% aqueous phosphoric acid/acetonitrile; read-out: log P (pH 2.3)

Row | Compound | chromatographic logP
5 | C=COC(=O)CSc1nccc(-c2ccccn2)n1 [Example 17] | 2.37
6 | O=C(NCCCOC(=O)CSc1nccc(-c2ccccn2)n1)Nc1ccc(Cl)cc1Cl [Example 139] | 3.2
7 | O=C(CSc1nccc(-c2ccccn2)n1)NCC1CC1 [Example 67] | 1.83
8 | O=C(CSc1nccc(-c2ccccn2)n1)NCc1ccc(Cl)c(Cl)c1 [Example 44] | 2.64
9 | COC(=O)/C=C(/CSc1nccc(-c2ccccn2)n1)OC [Example 31] | 2.7
10 | CCOC(=O)CSc1nccc(-c2ccccn2)n1 [Example 13] | 2.17
11 | O=C(NCCOC(=O)CSc1nccc(-c2ccccn2)n1)Nc1ccc(C(F)(F)F)cc1 [Example 147] | 3.04
12 | COC(=O)CS(=O)(=O)c1nccc(-c2ccccn2)n1 [Example 12] | 1.37
13 | O=C(CSc1nccc(-c2ccccn2)n1)OCCCN1CCCCC1 [Example 110] | 1.13
14 | O=C(CSc1nccc(-c2ccccn2)n1)NCc1ccccc1SC(F)(F)F [Example 138] | 2.92
15 | O=C(CSc1nccc(-c2ccccn2)n1)OCc1ccc(Cl)nc1 [Example 124] | 2.31
16 | O=C(CSc1nccc(-c2ccccn2)n1)NCCc1ccc(OC(F)(F)F)cc1 [Example 38] | 2.96
17 | C=CCOC(=O)CSc1nccc(-c2ccccn2)n1 [Example 18] | 2.4
18 | O=C(CSc1nccc(-c2ccccn2)n1)OC1COCOC1 [Example 127] | 1.76
19 | COC(=O)CC(=O)CSc1nccc(-c2ccccn2)n1 [Example 14] | 1.76
20 | O=C(CSc1nccc(-c2ccccn2)n1)OCC(Cl)(Cl)Cl [Example 125] | 3.31
21 | O=C(CSc1nccc(-c2ccccn2)n1)OCC1CCCC1 [Example 154] | 3.6
22 | COC(=O)C(Sc1nccc(-c2ccccn2)n1)C(=O)OC [Example 24] | 2.16
23 | O=C(CSc1nccc(-c2ccccn2)n1)OCCC(F)(F)F [Example 122] | 2.26
24 | N#Cc1ccc(NC(=O)NCCOC(=O)CSc2nccc(-c3ccccn3)n2)cc1 [Example 146] | 2.3
25 | O=C(NCCOC(=O)CSc1nccc(-c2ccccn2)n1)Nc1cccc2c1CCCC2 [Example 151] | 2.94
26 | O=C(CSc1nccc(-c2ccccn2)n1)N1CCOCC1 [Example 65] | 1.55
27 | CC(C)=CCOC(=O)CSc1nccc(-c2ccccn2)n1 [Example 96] | 3.18
28 | Cc1ccc(C(C)NC(=O)CSc2nccc(-c3ccccn3)n2)cc1 (centres unmarked) [Example 57] | 2.48

Row | Compound | chromatographic logP
29 | CCOC(=O)CSc1nccc(-c2ccc(C)cn2)n1 [Example 128] | 2.5
30 | O=C(CSc1nccc(-c2ccccn2)n1)NCCc1ccc(Cl)cc1Cl [Example 41] | 2.83
31 | N#Cc1ccc(NC(=O)NCCCOC(=O)CSc2nccc(-c3ccccn3)n2)cc1 [Example 152] | 2.45
32 | O=C(CSc1nccc(-c2ccccn2)n1)OCc1ccccc1 [Example 19] | 2.99
33 | CCOC(=O)CSc1nccc(-c2cc(C)ccn2)n1 [Example 102] | 2.2
34 | O=C(CSc1nccc(-c2ccccn2)n1)NCc1ccc(Cl)nc1 [Example 53] | 1.71
35 | CC(NC(=O)CSc1nccc(-c2ccccn2)n1)c1ccc(C(C)(C)C)cc1 (centres unmarked) [Example 43] | 3.4
36 | CCCOC(=O)C(Sc1nccc(-c2ccccn2)n1)C(C)C (centres unmarked) [Example 80] | 3.96
37 | O=C(O)CSc1nccc(-c2ccccn2)n1 [Example 11] | 1.14
38 | NNC(=O)CSc1nccc(-c2ccccn2)n1 [Example 134] | 0.43
39 | O=C(CSc1nccc(-c2ccccn2)n1)NCc1ccco1 [Example 64] | 1.82
40 | COC(=O)CCCSc1nccc(-c2ccccn2)n1 [Example 76] | 2.35
41 | N#CCCCCOC(=O)CSc1nccc(-c2ccccn2)n1 [Example 95] | 2.29
42 | O=C(CSc1nccc(-c2ccccn2)n1)NCc1ccccn1 [Example 62] | 1.14
43 | CN(Cc1ccc(Cl)nc1)C(=O)CSc1nccc(-c2ccccn2)n1 [Example 49] | 2.01
44 | O=C(CSc1nccc(-c2ccccn2)n1)NCCc1cccc(C(F)(F)F)c1 [Example 42] | 2.82
45 | COC(=O)C[S+]([O-])c1nccc(-c2ccccn2)n1 (centres unmarked) [Example 108] | 0.89
46 | Cc1cccc(CNC(=O)CSc2nccc(-c3ccccn3)n2)c1 [Example 59] | 2.29
47 | O=C(NCCCOC(=O)CSc1nccc(-c2ccccn2)n1)Nc1cccc2c1CCCC2 [Example 133] | 3.06
48 | COC(=O)CSc1nc(-c2ccccc2)cc(-c2ccccn2)n1 [Example 109] | 3.57
49 | CC(C)(C)c1ccc(NC(=O)NCCOC(=O)CSc2nccc(-c3ccccn3)n2)cc1 [Example 148] | 3.35
50 | CCCCCCCCCCCCOC(=O)CSc1nccc(-c2ccccn2)n1 [Example 86] | 7.22
51 | O=C(CSc1nccc(-c2ccccn2)n1)NCc1ccc(Cl)cc1Cl [Example 45] | 2.69

Continued, values first:

Row | chromatographic logP | Compound
52 | 3.39 | CCOC(=O)CSc1nccc(-c2ccc(Br)cn2)n1 [Example 305]
53 | 3.61 | CC(C)(C)SC(=O)CSc1nccc(-c2ccccn2)n1 [Example 312]
54 | 3.48 | CC(C=C(Cl)Cl)OC(=O)CSc1nccc(-c2ccccn2)n1 (centres unmarked) [Example 215]
55 | 1.97 | CC(=O)NCC(C)OC(=O)CSc1nccc(-c2ccccn2)n1 (centres unmarked) [Example 188]
56 | 2.13 | C/C=N/OCCOC(=O)CSc1nccc(-c2ccccn2)n1 [Example 214]
57 | 0.96 | NC(=O)CCSc1nccc(-c2ccccn2)n1 [Example 314]
58 | 3.31 | CCOC(=O)CSc1nccc(-c2cccc(Br)n2)n1 [Example 307]
59 | 1.17 | c1ccc(-c2ccnc(SCc3nn[nH]n3)n2)nc1 [Example 299]
60 | 3.2 | CCOC(=O)C(OC(=O)CSc1nccc(-c2ccccn2)n1)C(C)C (centres unmarked) [Example 243]
61 | 1.97 | O=C(CSc1nccc(-c2ccccn2)n1)OCCc1noc(=O)[nH]1 [Example 250]
62 | 1.98 | CC1(COC(=O)CSc2nccc(-c3ccccn3)n2)COC1 [Example 158]
63 | 3 | O=C(CSc1nccc(-c2ccccn2)n1)OC1CC(F)(F)C1(F)F (centres unmarked) [Example 221]
64 | 2.05 | COC(COC(=O)CSc1nccc(-c2ccccn2)n1)OC [Example 164]
65 | 2.65 | CC(=O)O[C@H]1CCC[C@H]1OC(=O)CSc1nccc(-c2ccccn2)n1 [Example 248]
66 | 2.18 | CCOC(=O)CSc1ncc(C)c(-c2ccccn2)n1 [Example 271]
67 | 2.75 | CC(C)(C)C1(COC(=O)CSc2nccc(-c3ccccn3)n2)COC1 [Example 211]

Row | chromatographic logP | Compound
68 | 2.13 | CO/N=C/C(C)OC(=O)CSc1nccc(-c2ccccn2)n1 (centres unmarked) [Example 212]
69 | 2.16 | COC(=O)c1ccc(NC(=O)CSc2nccc(-c3ccccn3)n2)cc1 [Example 309]
70 | 1.97 | CON(C)C(=O)COC(=O)CSc1nccc(-c2ccccn2)n1 [Example 234]
71 | 2.22 | CCOC(=O)CSc1nccc(-c2ncccc2CC)n1 [Example 266]
72 | 3.48 | C=CC(C)(C)COC(=O)CSc1nccc(-c2ccccn2)n1 [Example 168]
73 | 2.64 | CCOC(=O)C1CC1COC(=O)CSc1nccc(-c2ccccn2)n1 (centres unmarked) [Example 199]
74 | 1.32 | O=C(CSc1nccc(-c2ccccn2)n1)OCCn1cncn1 [Example 209]
75 | 3.54 | CCOC(=O)CSc1nccc(-c2cc(-c3ccccc3)ccn2)n1 [Example 262]
76 | 1.68 | CCOC(=O)CSc1nccc(-c2ccc(SC)cn2)n1 [Example 317]
77 | 1.79 | CCNC(=S)NCCOC(=O)CSc1nccc(-c2ccccn2)n1 [Example 172]
78 | 3.39 | CCOC(=O)/C=C(/CSc1nccc(-c2ccccn2)n1)OCC [Example 311]
79 | 1.42 | CNC(=O)NCCCOC(=O)CSc1nccc(-c2ccccn2)n1 [Example 213]
80 | 2.69 | CC(C)(C)n1nnc(CSc2nccc(-c3ccccn3)n2)n1 [Example 302]
81 | 2.46 | CC1(C)OCC(CCOC(=O)CSc2nccc(-c3ccccn3)n2)O1 (centres unmarked) [Example 193]
82 | 1.59 | Cn1nnc(CSc2nccc(-c3ccccn3)n2)n1 [Example 300]
83 | 1.93 | Cc1cnn(CCOC(=O)CSc2nccc(-c3ccccn3)n2)n1 [Example 176]
